Assay results as given in US7250251B2, “Virion-based fusion assay” (The J. David Gladstone Institutes, priority 2002, dated 2007).

Key:
[1] = test system: X4-tropic NL4-3 virions containing BlaM-Vpr fusing to SupT1 cells; experiment: Virion-based fusion assay (BlaM-Vpr/CCF2) in SupT1 cells, flow cytometry; format: cell-based, HIV-1; settings: NL4-3, 2 hours, about 20% of cells shifted without inhibitor
Procedure: (§1) No antibiotics were added to the culture media.
(§2) Light splitting was performed using a 505 SP filter.
After CCF2/AM loading, fusion was analyzed by multi-parameter flow cytometry using a violet laser for excitation of CCF2.

[2] = test system: CXCR4-tropic HIV-1 virions containing BlaM-Vpr fusing to primary PBMCs; experiment: Virion-based fusion assay (BlaM-Vpr/CCF2) in PHA-stimulated PBMCs, flow cytometry; format: cell-based; settings: CXCR4-tropic virions 100 ng p24 Gag, 2 hours, 5.2% of cells fused without inhibitor
Procedure: as §1, §2
PBMCs were activated with phytohemagglutinin (PHA) (10 ug/ml) overnight and subsequently cultured in IL-2 (20 IU/ml) for 5 days. The cells were then either mock-infected (FIG. 5, panel a) or infected for 2 hours with 100 ng p24-Gag of X4-tropic NL4-3 virions containing the BlaM-Vpr chimeric viral protein (FIG. 5, panels b, c, d, and e) or 500 ng p24-Gag of R5-tropic […] virions containing the BlaM-Vpr chimeric viral protein (FIG. 5, panels f, g, h, and i) either in the absence of inhibitors (FIG. 5, panel b and f) or in the presence of AMD3100 (250 nM, FIG. 5, panel c and g), […] (250 nM, FIG. 5, panels d and h), or AZT (10 μM, FIG. 5, panels e and i). After CCF2/AM dye loading of the cells, the BlaM reaction was allowed to develop for 12 hours. Virion fusion was analyzed by multi-parameter flow cytometry.

[3] = test system: X4-tropic NL4-3 strain of HIV (BlaM-Vpr-containing virions) fusing to HeLa-CD4 cells; settings: 250 nM added 1 hour prior to infection, NL4-3 200 ng p24-Gag, 2 hours, about 10% blue cells without inhibitor
Procedure: The virion-based fusion assay was performed in three successive steps, including 1) incubation of target cells with virus particles; 2) loading of target cells with CCF2/AM dye, and 3) development and detection of the BlaM reaction. Once target cells were loaded with the CCF2 dye, the cells were maintained at room temperature to avoid export of CCF2. Since viral infections are performed at 37° C., the infection step was performed first, and then the cell cultures were subsequently loaded with the CCF2/AM dye. […]
The change in emission fluorescence of CCF2 following cleavage by the BlaM-Vpr chimera was monitored by flow cytometry using a 3 laser Vantage SE instrument (Becton Dickinson, Inc., San Jose, Calif.). […] Blue emission was detected using an HQ455/50 filter while green emission data was collected using an HQ545/90 BP filter. […] Data were collected using CellQuest and analyzed with FlowJo software (Treestar Inc., San Carlos, Calif.). […]
Cultures of HeLa-CD4 cells expressing endogenous CXCR4 receptors were either mock-infected or infected for 2 hours with BlaM-Vpr-containing virions (200 ng p24-Gag) corresponding to an X4-tropic NL4-3 strain of HIV or an R5-tropic 81A strain of HIV. […] After loading of the cells with the CCF2/AM dye, fusion was analyzed by fluorescence microscopy. […]

[4] = test system: CCR5-tropic strain of HIV-1 (81A) containing BlaM-Vpr fusing to CCR5-Jurkat T cells; experiment: Virion-based fusion assay (BlaM-Vpr/CCF2) in Jurkat T cells expressing CCR5; format: cell-based; settings: 250 nM preincubation, R5-tropic 81A virions
Procedure: as §1, §2
To investigate whether the BlaM-Vpr assay discriminates between productive and non-productive virion entry by fusion and endocytosis respectively, Jurkat T cells either expressing or not expression CCR5 were incubated with a CCR5-tropic strain of HIV-1 (81A) containing BlaM-Vpr (FIG. 3). […] These 81A virions were capable of fusion as indicated by the increase in blue fluorescence obtained when these virions were incubated with Jurkat T cells expressing CCR5 (FIG. 3, panel d, compare with mock infection control in FIG. 3, panel c).

Row | Compound | shift to increased blue fluorescence induced by viral infection (virion fusion) ([1]; 250 nM pretreatment) | inhibition of shift to greater blue fluorescence (virion fusion) ([2]; 250 nM pretreatment) | blue cells (virion fusion, CCF2 cleavage) in virally infected cells pretreated with inhibitor [3] | shift to increased blue fluorescence induced by viral infection (virion fusion) ([1]; 10 μM) | inhibition of shift to greater blue fluorescence (virion fusion) ([2]; 10 μM pretreatment) | shift to increased blue fluorescence (virion fusion) [4]
1 | c1cc(CN2CCCNCCNCCCNCC2)ccc1CN1CCCNCCNCCCNCC1 [AMD3100] | almost completely blocked | inhibited this change | essentially no blue cells were detected | – | – | –
2 | Cc1cn([C@H]2C[C@H](N=[N+]=[N-])[C@@H](CO)O2)c(=O)[nH]c1=O [AZT] | – | – | – | did not impair the shift to greater blue fluorescence | produced no inhibitory effect | –
3 | Cc1ccc(-c2ccc3c(c2)C=C(C(=O)Nc2ccc(C[N+](C)(C)C4CCOCC4)cc2)CCC3)cc1.[Cl-] [TAK-779] | – | produced no inhibitory effect | – | – | – | no shift to increased blue fluorescence was observed
